# Assay results from BigSolDB 2.1.
# Settings: in water
compound,measurement,setting,value
C=CCC,solubility (mole fraction),293.15 K,9.53e-05
same,solubility (mole fraction),295.15 K,8.78e-05
same,solubility (mole fraction),298.15 K,7.97e-05
same,solubility (mole fraction),300.15 K,7.44e-05
same,solubility (mole fraction),303.15 K,6.77e-05
same,solubility (mole fraction),305.15 K,6.42e-05
same,solubility (mole fraction),308.15 K,5.96e-05
same,solubility (mole fraction),310.15 K,5.56e-05
same,solubility (mole fraction),313.15 K,5.24e-05
same,solubility (mole fraction),315.15 K,4.9e-05
same,solubility (mole fraction),318.15 K,4.63e-05
same,solubility (mole fraction),320.15 K,4.42e-05
same,solubility (mole fraction),323.15 K,4.12e-05
